According to patent US9447385B2, “Butanol dehydrogenase enzyme from the bacterium Achromobacter xylosoxidans” (BUTAMAX ADVANCED BIOFUELS LLC, priority 2008, dated 2016):
Where two headings read alike, the source gives them in different places.

Columns and labels:
[1] = system: A. xylosoxidans butanol dehydrogenase; conditions: alcohol substrate (oxidation); 35° C., TRIS buffer pH 8.5, 3 mM NAD+; crude enzyme from A. xylosoxidans
Description: Reactions with alcohol substrates were performed at 35° C. in TRIS buffer, pH 8.5, containing 3 mM NAD^+ and varying concentrations of alcohol. Reactions with ketone or aldehyde substrates were performed at 35° C. with 50 mM MES buffer, pH 6.0, 200 μM NADH and varying concentrations of the ketone or aldehyde. Crude enzyme preparations were used, obtained either from A. xylosoxidans or recombinant E. coli strain Mach1/pTrc99a::sadB (described in Example 3 below).

[2] = system: butanol dehydrogenase from A. xylosoxidans; assay: Activity stain on non-denaturing polyacrylamide gel (MTT/PMS coupled); format: biochemical, Achromobacter xylosoxidans; conditions: NAD+, MTT, PMS
Description: The purified enzyme and molecular weight standards were subjected to electrophoresis using non-denaturing polyacrylamide gels (8-16% Tris-Glycine gradient gel, Invitrogen). After electrophoresis, the gels were removed and stained for protein (Simply Blue Protein Stain, Invitrogen) or stained for activity by coupling the conversion of 1-butanol plus NAD^+ to butyraldehyde plus NADH with the conversion of 3 [4,5-dimethylthiazol-2-yl]-2,5-diphenyltetrazolium bromide (MTT) to a deeply colored formazan, using phenazine methosulfate (PMS) as mediator (Tang et al., J. Bacteriol. 140, 182 (1997)). The activity solution contained 0.5 mg PMS, 5 mg MTT, 20 mg NAD^+ and 1 mL of 1-butanol in a total volume of 25 mL.

[3] = system: A. xylosoxidans butanol dehydrogenase; assay: Kinetic characterization of butanol dehydrogenase, reduction of ketone or aldehyde substrates; format: biochemical, Achromobacter xylosoxidans; conditions: 35° C., 50 mM MES pH 6.0, 200 μM NADH
Description: The secondary alcohol dehydrogenase (sadB) from Achromobacter xylosoxidans was cloned into the vector pTrc99a (Amann et al., Gene 69(2):301-315 (1988)). The coding region (SEQ ID NO: 1) was amplified using standard conditions from A. xylosoxidans genomic DNA, prepared using a Gentra Puregene kit (Gentra Systems, Inc., Minneapolis, Minn.; catalog number D-5500A) following the recommended protocol for gram negative organisms using forward and reverse primers N473 and N469 (SEQ ID NOs: 24 and 23). The PCR product was TOPO-Blunt cloned into pCR4 BLUNT (Invitrogen) to produce pCR4Blunt::sadB, which was used to transform E. coli Mach-1 cells. Plasmid DNA was subsequently isolated from four clones, and the sequence verified. The plasmid was then digested with EcoRI, releasing the sadB fragment, which was ligated with EcoRI-digested pTrc99a to generate pTrc99a::sadB. The E. coli Mach 1 cells were transformed with the plasmid and the resulting transformant was named Mach1/pTrc99a::sadB.

[4] = ketone or aldehyde substrate (reduction), crude enzyme from A. xylosoxidans
[5] = aldehyde substrate (reduction), crude enzyme from E. coli strain Mach1/pTrc99a

Molecule | Km [1] | Vmax [1] | activity staining of the enzyme band with the alcohol as substrate [2] | Km [3, 4] | Vmax [3, 4] | further results
1-Butanol | 4600 µM | 0.02 µmol/min |  |  |  | 
CCC(C)O (stereo not drawn) [2-Butanol] | 300 µM | 0.22 µmol/min | active |  |  | 
CCC(C)=O [2-Butanone] |  |  |  | 500 µM | 0.35 µmol/min | 
CCCC=O [Butyraldehyde] |  |  |  | 7300 µM | 0.67 µmol/min | 
CC(C)C=O [Isobutyraldehyde] |  |  |  |  |  | Km [3, 5]: 1900 µM; Vmax [3, 5]: 1.1 µmol/min
CC(C)CO [isobutanol] |  |  | active |  |  | 
